≈ marks a conversion by molar mass, not a printed value. Structures can show the parent of a compound that is named as a salt. Where two headings read alike, the source gives them in different places.

Data set [1] in a line: Aqueous stability assay (HPLC, pseudo first-order half-life). The data set is classed as physicochemical. As to conditions: DPBS pH 7.0-7.3, 1 mg/mL, room temperature; for half-life at 1 mg/mL / half-life: buffer, read-out: PBS t1/2 (converted). The protocol:
Aqueous stability experiments were performed on an Agilent 1100 HPLC equipped with an Agilent 1200 autosampler. HPLC grade solvents were exclusively used during analysis, with acetonitrile being purchased from Sigma Aldrich, and water and formic acid provided by Fisher Scientific. […]
[…] All mixtures were then sonicated for 5 min or stirred until complete dissolution was achieved. Any precipitate observed in sample solutions was filtered with a PTFE syringe filter prior to analysis. Immediately after sample preparation, injection by the HPLC autosampler was performed, which was recorded as the initial time point (t=0 min). Samples were then kept in the autosampler at room temperature and injected at designated intervals without additional filtration or sample modification. Next, the area of the parent peak in each chromatogram was determined by automated integration in the Agilent ChemStation software. Pseudo first-order half-lives were then ascertained by calculating the percent of the parent compound remaining after each time point. Plots of time (x-axis) vs. the natural logarithm of percent parent remaining (y-axis) were subsequently constructed to determine the slope. Finally, the aqueous stability was evaluated using the following equation:
The HPLC conditions were as follows: injection volume, 1 μL; column temperature: 40° C.; detector: 254 nm; stationary phase: Zorbax Eclipse XDB-C18 (4.6×150 mm, 5 μm); flow rate: 1 mL/min; mobile phase: 80-95% acetonitrile in H2O (0.1% formic acid).

Data set [2] in a line: Plasma stability assay (LC-MS/MS). The data set is classed as in vitro ADME. As to conditions: human plasma, 37° C., 3 μM; for half-life: read-out: Plasma t1/2 (converted). Here is the method:
Procaine and procainamide were purchased from Sigma Aldrich. HPLC-grade acetonitrile, water, methanol, and formic acid were purchased from Fisher Scientific. Human plasma (Cat. No. […]2N) was obtained from BIOIVT, and PBS (1×Dulbecco's, pH 7.4) from Thermo Fisher Scientific.
Test compounds were dissolved in DMSO to make a stock solution of 10 mM and then diluted to 500 μM in buffer or 70% methanol. Human plasma was thawed at ambient temperature and aliquoted (994.0 μL) to a 1.5 mL Eppendorf tube in duplicates (vials A and B) for each compound. The plasma was incubated at 37° C. for 10 min in an incubator shaker at 150 RPM; the reaction was initiated by addition of the test compound (6.0 μL), followed by vortex mixing. The total reaction volume was 1000 μL, the final organic solvent concentrations were […] (when 70% methanol was used for dilution) and 0.03% DMSO, and the final concentration of the test compound was 3 μM. The spiked plasma samples were incubated at 37° C. for 4 h. The reactions were terminated at time point 0, 15, 30, 60, 120, 180, and 240 min by taking a 100 μL aliquot from the test incubation mixture and immediately quenching it by adding it into ice-cold acetonitrile or methanol (150 μL) containing 2 μM internal standard (ISTD), followed by vortex mixing. The ISTD was d5-7-ethoxy coumarin. The samples were then centrifuged at 15000 RPM for 25 min at 4° C., and the supernatant was transferred to an LC-MS vial for analysis by LC-MS/MS. Each time point was tested in duplicates followed by in-between blank washes to avoid carryover and to equilibrate the column.
Procaine (poor plasma stability) and procainamide (good plasma stability) were used as controls at the same concentration as that of the test compound. These controls were run in parallel to test the assay's competency. Matrix blank was prepared by adding acetonitrile or methanol containing ISTD to plasma samples without any of the test or control compounds. Also, an additional control sample was made to simply monitor compound degradation in PBS buffer.
Below is a summary of samples prepared for a given test compound in a typical plasma stability assay: • Test compound (TC): 994 μL human plasma+6.0 μL TC (Vial A) 994 μL human plasma+6.0 μL TC (Vial B) • Control: 596 μL human plasma+3.6 μL (procaine+procainamide) • Blank matrix: 500 μL PBS buffer+100 μL human plasma • Additional control: 142 μL PBS buffer+0.9 μL TC • Quenching mixture: 150 μL acetonitrile or methanol with ISTD (2 μM) • Final volume: 250 μL (100 μL from the incubation mixture+150 μL quenching mixture; final ISTD conc.: 1.2 μM)
LC-MS/MS analysis was performed using Agilent 1260 Infinity II HPLC, coupled with an Agilent G6460 triple quadrupole mass spectrometer (Agilent Technologies, USA). The data were acquired and processed using the Agilent 6460 Quantitative Analysis data processing software.
Reverse-phase HPLC separation for each compound was achieved on an Agilent InfinityLab Poroshell 120 C18 column (2.1×50 mm, 2.7 μm) with a mobile phase composed of methanol/water with 0.1% formic acid or acetonitrile/water with 0.1% formic acid at a flow rate of 0.5 mL/min. Each method was developed in the presence of the ISTD. The column temperature was maintained at 40° C. The detection was operated using the Agilent Jet-Stream electrospray positive ionization under the multiple reaction monitoring mode. The mass spec conditions were as follows: dwell time 100 ms; gas flow 10 L/min; nebulizer pressure 45 psi; delta EMV 200 V.
Plots of time (x-axis) vs. the natural logarithm of percent parent remaining (y-axis) were subsequently constructed to determine the slope. Finally, the plasma stability was evaluated using the following equation: […]

The nature of data set [3]: Nephelometry (aqueous solubility). The data set is classed as physicochemical. The conditions noted are these: DPBS with 1% DMSO, aqueous buffer, kinetic from dmso stock, DPBS pH 7.0-7.3, 1% DMSO, 25° C. The text has this: Well A1 of the plate contained 100% DMSO.

For `C/C(=N\OC(=O)NCCN)[C@H]1CC[C@H]2[C@@H]3CCC4=CC(=O)CC[C@]4(C)[C@H]3CC[C@]12C` [32a, (8S,9S,10R,13S,14S,17S)-17-((E)-1-((((2-aminoethyl)carbamoyl)oxy)imino)ethyl)-10,13-dimethyl-1,2,6,7,8,9,10,11,12,13,14,15,16,17-tetradecahydro-3H-cyclopenta[a]phenanthren-3-one hydrochloride], the half-life at 1 mg/mL in data set [1] was above 30 h. Also, the “Plasma t1/2” value in data set [2] was above 2 h. Besides, the solubility at 90 min in data set [3] was above 750 µM.

As for `C/C(=N\OC(=O)NC[C@@H]1CCCCN1)[C@H]1CCC2[C@@H]3CCC4=CC(=O)CC[C@]4(C)[C@H]3CC[C@@]21C` (stereo partly drawn) [32i, (8S,9S,10R,13S,17S)-10,13-dimethyl-17-((E)-1-((((((S)-piperidin-2-yl)methyl)carbamoyl)oxy)imino)ethyl)-1,2,6,7,8,9,10,11,12,13,14,15,16,17-tetradecahydro-3H-cyclopenta[a]phenanthren-3-one hydrochloride], in data set [1] (d (days)), the half-life at 1 mg/mL was 684 h. The compound further came in with a solubility at 90 min in data set [3] above 750 µM.

Turning to `CNCCN(C(=O)O/N=C(\C)[C@H]1CC[C@H]2[C@@H]3CCC4=CC(=O)CC[C@]4(C)[C@H]3CC[C@]12C)C1CCC1.O=C(O)C(F)(F)F` [53c, (E)-5-cyclobutyl-9-((8S,9S,10R,13S,14S,17S)-10,13-dimethyl-3-oxo-2,3,6,7,8,9,10,11,12,13,14,15,16,17-tetradecahydro-1H-cyclopenta[a]phenanthren-17-yl)-7-oxa-2,5,8-triazadec-8-en-6-one 2,2,2-trifluoroacetate], the “PBS t1/2” value in data set [1] turned out to be 11.79 ± 0.51 h. The solubility at 90 min in data set [3] was above 750 µM.

In the case of `CNCCN(CCN(C)C)C(=O)O/N=C(\C)[C@H]1CC[C@H]2[C@@H]3CCC4=CC(=O)CC[C@]4(C)[C@H]3CC[C@]12C.O=C(O)C(F)(F)F` [53f, (E)-9-((8S,9S,10R,13S,14S,17S)-10,13-dimethyl-3-oxo-2,3,6,7,8,9,10,11,12,13,14,15,16,17-tetradecahydro-1H-cyclopenta[a]phenanthren-17-yl)-2-methyl-5-(2-(methylamino)ethyl)-7-oxa-2,5,8-triazadec-8-en-6-one 2,2,2-trifluoroacetate], the “PBS t1/2” value in data set [1] is given as 2.17 ± 0.02 h. For the same compound, the solubility at 90 min in data set [3] is above 500 µM.

With `CNCCN(CCNC)C(=O)O/N=C(\C)[C@H]1CC[C@H]2[C@@H]3CCC4=CC(=O)CC[C@]4(C)[C@H]3CC[C@]12C.Cl.Cl` [53i, (E)-9-((8S,9S,10R,13S,14S,17S)-10,13-dimethyl-3-oxo-2,3,6,7,8,9,10,11,12,13,14,15,16,17-tetradecahydro-1H-cyclopenta[a]phenanthren-17-yl)-5-(2-(methylamino)ethyl)-7-oxa-2,5,8-triazadec-8-en-6-one dihydrochloride], the “PBS t1/2” value in data set [1] came out at 1.51 ± 0.05 h. Further, the solubility at 90 min in data set [3] is above 750 µM.

Consider `C/C(=N\OC(=O)N(CCN)CCN)[C@H]1CC[C@H]2[C@@H]3CCC4=CC(=O)CC[C@]4(C)[C@H]3CC[C@]12C.O=C(O)C(F)(F)F.O=C(O)C(F)(F)F` [53j, (8S,9S,10R,13S,14S,17S)-17-((E)-1-(((bis(2-aminoethyl)carbamoyl)oxy)imino)ethyl)-10,13-dimethyl-1,2,6,7,8,9,10,11,12,13,14,15,16,17-tetradecahydro-3H-cyclopenta[a]phenanthren-3-one bis(2,2,2-trifluoroacetate)], for which, in data set [1], the “PBS t1/2” value came to 10.13 ± 0.41 h. Moreover, the solubility at 90 min in data set [3] was above 750 µM.

On to `C/C(=N\OC(=O)N(C)CCO)[C@H]1CC[C@H]2[C@@H]3CCC4=CC(=O)CC[C@]4(C)[C@H]3CC[C@]12C` [compound 33, (8S,9S,10R,13S,14S,17S)-17-((E)-1-((((2-hydroxyethyl)(methyl)carbamoyl)oxy)imino)ethyl)-10,13-dimethyl-1,2,6,7,8,9,10,11,12,13,14,15,16,17-tetradecahydro-3H-cyclopenta[a]phenanthren-3-one], for which the half-life in data set [1] is 38.5 h. Moreover, the solubility at 90 min in data set [3] was determined as 124 ± 3.28 µM (≈ 53.3 µg/mL).

In the case of `C/C(=N\OC(=O)OCCN(C)C)[C@H]1CC[C@H]2[C@@H]3CCC4=CC(=O)CC[C@]4(C)[C@H]3CC[C@]12C.Cl` [compound 35, (E)-9-((8S,9S,10R,13S,14S,17S)-10,13-dimethyl-3-oxo-2,3,6,7,8,9,10,11,12,13,14,15,16,17-tetradecahydro-1H-cyclopenta[a]phenanthren-17-yl)-2-methyl-5,7-dioxa-2,8-diazadec-8-en-6-one hydrochloride], the half-life in data set [1] is 3.5 ± 0.6 h. For the same compound, the “Plasma t1/2” value in data set [2] came out at 7.2 h.

Consider `CNCCCN(C)C(=O)O/N=C(\C)[C@H]1CC[C@H]2[C@@H]3CCC4=CC(=O)CC[C@]4(C)[C@H]3CC[C@]12C.Cl` [compound 39, (E)-10-((8S,9S,10R,13S,14S,17S)-10,13-dimethyl-3-oxo-2,3,6,7,8,9,10,11,12,13,14,15,16,17-tetradecahydro-1H-cyclopenta[a]phenanthren-17-yl)-6-methyl-8-oxa-2,6,9-triazaundec-9-en-7-one hydrochloride], for which, in data set [1] (d (days)), the half-life is above 720 h. Also, the “Plasma t1/2” value in data set [2] was above 4 h.

On to `CNCC(C)(C)CN(C)C(=O)O/N=C(\C)[C@H]1CCC2[C@@H]3CCC4=CC(=O)CC[C@]4(C)[C@H]3CC[C@@]21C.Cl` (stereo partly drawn) [compound 40, (E)-10-((8S,9S,10R,13S,17S)-10,13-dimethyl-3-oxo-2,3,6,7,8,9,10,11,12,13,14,15,16,17-tetradecahydro-1H-cyclopenta[a]phenanthren-17-yl)-4,4,6-trimethyl-8-oxa-2,6,9-triazaundec-9-en-7-one hydrochloride], for which the half-life in data set [1] (d (days)) is 547 h; in data set [2], above 4 h.

With `C/C(=N\OC(=O)N(C)CCNCCOC(F)(F)F)[C@H]1CC[C@H]2[C@@H]3CCC4=CC(=O)CC[C@]4(C)[C@H]3CC[C@]12C.Cl` [compound 41, (E)-12-((8S,9S,10R,13S,14S,17S)-10,13-dimethyl-3-oxo-2,3,6,7,8,9,10,11,12,13,14,15,16,17-tetradecahydro-1H-cyclopenta[a]phenanthren-17-yl)-1,1,1-trifluoro-8-methyl-2,10-dioxa-5,8,11-triazatridec-11-en-9-one hydrochloride], the results for the half-life in data set [1] and in data set [2] were 28.5 ± 1.8 h and 1.1 h, respectively.
